Numbers after ± are expanded uncertainties.
Settings: for viscosity / mass density: 101.33 kPa, Liquid; for viscosity: Cone and plate viscometry; for mass density: Vibrating tube method; for Glass transition temperature: DSC

SMILES	viscosity (278.15 K)	viscosity (283.15 K)	mass density (283.15 K)	viscosity (288.15 K)	mass density (288.15 K)	viscosity (293.15 K)	mass density (293.15 K)	mass density (295.15 K)	viscosity (298.15 K)	mass density (298.15 K)	viscosity (303.15 K)	mass density (303.15 K)	viscosity (308.15 K)	mass density (308.15 K)	viscosity (313.15 K)	mass density (313.15 K)	mass density (318.15 K)	mass density (323.15 K)	mass density (328.15 K)	mass density (333.15 K)	other results
CCCCCCCC[P+](CC)(CC)CC.O=S(=O)([N-]S(=O)(=O)C(F)(F)F)C(F)(F)F [triethyloctylphosphonium bis(trifluoromethylsulfonyl)imide]	379 ± 29 mPa·s	268 ± 20 mPa·s	1256.3 ± 8.6 kg/m3	194 ± 14 mPa·s	1252.2 ± 8.5 kg/m3	145 ± 10 mPa·s	1248.1 ± 8.5 kg/m3	1246.6 ± 8.5 kg/m3	111 ± 8 mPa·s	1244.2 ± 8.4 kg/m3	87 ± 6 mPa·s	1240.2 ± 8.4 kg/m3	73 ± 5 mPa·s	1236.2 ± 8.3 kg/m3	57 ± 4 mPa·s	1232.2 ± 8.3 kg/m3	1228.2 ± 8.2 kg/m3	1224.2 ± 8.2 kg/m3	1220.2 ± 8.1 kg/m3	1216.3 ± 8.1 kg/m3	mass density (338.15 K): 1212.3 ± 8 kg/m3; mass density (343.15 K): 1208.4 ± 7.9 kg/m3; mass density (348.15 K): 1204.4 ± 7.9 kg/m3; mass density (353.15 K): 1200.5 ± 7.8 kg/m3
CCCCCCC[P+](CC)(CC)CC.O=[N+]([O-])c1cn[n-]c1 [triethylheptylphosphonium 4-nitropyrazolide]	1000 ± 90 mPa·s	657 ± 54 mPa·s	1047.1 ± 5.9 kg/m3	443 ± 35 mPa·s	1044 ± 5.9 kg/m3	309 ± 23 mPa·s	1040.9 ± 5.9 kg/m3	1039.7 ± 5.8 kg/m3	223 ± 16 mPa·s	1037.8 ± 5.8 kg/m3	165 ± 12 mPa·s	1034.8 ± 5.8 kg/m3	126 ± 9 mPa·s	1031.8 ± 5.8 kg/m3	97 ± 7 mPa·s	1028.8 ± 5.7 kg/m3	1026 ± 5.7 kg/m3	1023.1 ± 5.7 kg/m3	1020.2 ± 5.6 kg/m3	1017.3 ± 5.6 kg/m3	viscosity (318.15 K): 77 ± 5 mPa·s; viscosity (323.15 K): 62 ± 4 mPa·s; mass density (338.15 K): 1014.5 ± 5.6 kg/m3; mass density (343.15 K): 1011.6 ± 5.5 kg/m3; mass density (348.15 K): 1008.8 ± 5.5 kg/m3; mass density (353.15 K): 1006 ± 5.5 kg/m3; Normal melting temperature (Crystal, DTA): 16 ± 2 °C; Glass transition temperature: -72 ± 2 °C
CC(=O)[O-].CCCCCCn1cc[n+](C)c1 [3-hexyl-1-methylimidazolium acetate]	12300 ± 1500 mPa·s	6460 ± 740 mPa·s	1025.7 ± 5.7 kg/m3	3550 ± 370 mPa·s	1022.7 ± 5.7 kg/m3	2060 ± 200 mPa·s	1019.6 ± 5.6 kg/m3	1018.4 ± 5.6 kg/m3	1270 ± 120 mPa·s	1016.6 ± 5.6 kg/m3	816 ± 69 mPa·s	1013.5 ± 5.5 kg/m3	537 ± 43 mPa·s	1010.4 ± 5.5 kg/m3	372 ± 28 mPa·s	1007.4 ± 5.5 kg/m3	1004.5 ± 5.4 kg/m3	1001.5 ± 5.4 kg/m3	998.5 ± 5.4 kg/m3	995.5 ± 5.3 kg/m3	viscosity (318.15 K): 265 ± 19 mPa·s; viscosity (323.15 K): 194 ± 14 mPa·s; viscosity (328.15 K): 147 ± 10 mPa·s; viscosity (333.15 K): 113 ± 8 mPa·s; viscosity (338.15 K): 90 ± 6 mPa·s; mass density (338.15 K): 992.6 ± 5.3 kg/m3; mass density (343.15 K): 989.6 ± 5.3 kg/m3; mass density (348.15 K): 986.7 ± 5.3 kg/m3; mass density (353.15 K): 983.7 ± 5.2 kg/m3
CCC[n+]1ccn(C)c1C.O=[N+]([O-])c1cn[n-]c1 [1,2-dimethyl-3-propylimidazolium 4-nitropyrazolide]	9610 ± 1100 mPa·s	4500 ± 500 mPa·s	1193 ± 7.7 kg/m3	2270 ± 230 mPa·s	1189.4 ± 7.7 kg/m3	1240 ± 110 mPa·s	1185.6 ± 7.6 kg/m3	1184.3 ± 7.6 kg/m3	722 ± 61 mPa·s	1182.2 ± 7.6 kg/m3	447 ± 35 mPa·s	1178.9 ± 7.6 kg/m3	294 ± 22 mPa·s	1175.5 ± 7.5 kg/m3	200 ± 10 mPa·s	1172.2 ± 7.5 kg/m3	1168.9 ± 7.4 kg/m3	1165.7 ± 7.4 kg/m3	1162.5 ± 7.3 kg/m3	1159.3 ± 7.3 kg/m3	viscosity (318.15 K): 143 ± 10 mPa·s; viscosity (323.15 K): 106 ± 7 mPa·s; viscosity (328.15 K): 81 ± 5 mPa·s; viscosity (333.15 K): 65 ± 4 mPa·s; viscosity (338.15 K): 53 ± 4 mPa·s; mass density (338.15 K): 1156.1 ± 7.3 kg/m3; mass density (343.15 K): 1152.8 ± 7.2 kg/m3; mass density (348.15 K): 1149.6 ± 7.2 kg/m3; mass density (353.15 K): 1146.4 ± 7.1 kg/m3; Glass transition temperature: -50 ± 2 °C
CCCCCCn1cc[n+](C)c1.N#Cc1ccc[n-]1 [1-hexyl-3-methylimidazolium 2-cyanopyrrolide]	1540 ± 140 mPa·s	902 ± 78 mPa·s	1031 ± 5.7 kg/m3	553 ± 45 mPa·s	1027.9 ± 5.7 kg/m3	355 ± 27 mPa·s	1024.9 ± 5.7 kg/m3	1023.6 ± 5.7 kg/m3	239 ± 17 mPa·s	1021.8 ± 5.6 kg/m3	167 ± 12 mPa·s	1018.8 ± 5.6 kg/m3	122 ± 8 mPa·s	1015.8 ± 5.6 kg/m3	91 ± 6 mPa·s	1012.8 ± 5.5 kg/m3	1009.9 ± 5.5 kg/m3	1006.9 ± 5.5 kg/m3	1003.9 ± 5.4 kg/m3	1001 ± 5.4 kg/m3	viscosity (318.15 K): 70 ± 5 mPa·s; viscosity (323.15 K): 55 ± 4 mPa·s; mass density (338.15 K): 998 ± 5.4 kg/m3; mass density (343.15 K): 995.1 ± 5.3 kg/m3; mass density (348.15 K): 992.1 ± 5.3 kg/m3; mass density (353.15 K): 989.1 ± 5.3 kg/m3; Glass transition temperature: -65 ± 2 °C
CC[P+](CC)(CC)COCCOC.Cc1ncc([N+](=O)[O-])[n-]1	567 ± 45 mPa·s	381 ± 29 mPa·s	–	264 ± 19 mPa·s	–	189 ± 13 mPa·s	–	–	140 ± 10 mPa·s	–	106 ± 7 mPa·s	–	83 ± 6 mPa·s	–	65 ± 4 mPa·s	–	–	–	–	–	viscosity (318.15 K): 53 ± 4 mPa·s; Glass transition temperature: -75 ± 2 °C
CCCCCCCCCCCCCC[P+](CCCCCC)(CCCCCC)CCCCCC.O=[N+]([O-])c1c[n-]cn1 [trihexyl(tetradecyl)phosphonium 4-nitroimidazolide]	3380 ± 340 mPa·s	2220 ± 210 mPa·s	949.4 ± 4.9 kg/m3	1500 ± 140 mPa·s	946.3 ± 4.9 kg/m3	1040 ± 91 mPa·s	943.1 ± 4.8 kg/m3	941.8 ± 4.8 kg/m3	735 ± 61 mPa·s	940.1 ± 4.8 kg/m3	533 ± 42 mPa·s	937.1 ± 4.8 kg/m3	396 ± 30 mPa·s	934.2 ± 4.8 kg/m3	298 ± 22 mPa·s	931.3 ± 4.7 kg/m3	928.4 ± 4.7 kg/m3	925.4 ± 4.7 kg/m3	922.6 ± 4.7 kg/m3	919.7 ± 4.7 kg/m3	viscosity (318.15 K): 230 ± 16 mPa·s; viscosity (323.15 K): 180 ± 13 mPa·s; viscosity (328.15 K): 144 ± 10 mPa·s; viscosity (333.15 K): 117 ± 8 mPa·s; viscosity (338.15 K): 96 ± 6 mPa·s; mass density (338.15 K): 916.9 ± 4.6 kg/m3; viscosity (343.15 K): 80 ± 5 mPa·s; mass density (343.15 K): 914 ± 4.6 kg/m3; mass density (348.15 K): 911.2 ± 4.6 kg/m3; mass density (353.15 K): 908.3 ± 4.6 kg/m3; Glass transition temperature: -66 ± 2 °C
CCCCCCCCCCCCCC[P+](CCCCCC)(CCCCCC)CCCCCC.O=S(=O)([N-]S(=O)(=O)C(F)(F)F)C(F)(F)F	1210 ± 110 mPa·s	841 ± 71 mPa·s	1076.1 ± 6.3 kg/m3	594 ± 48 mPa·s	1072.4 ± 6.2 kg/m3	430 ± 33 mPa·s	1068.8 ± 6.2 kg/m3	1067.3 ± 6.2 kg/m3	318 ± 24 mPa·s	1065.1 ± 6.1 kg/m3	241 ± 17 mPa·s	1061.5 ± 6.1 kg/m3	185 ± 13 mPa·s	1057.9 ± 6.1 kg/m3	145 ± 10 mPa·s	1054.4 ± 6 kg/m3	1050.8 ± 6 kg/m3	1047.3 ± 5.9 kg/m3	1043.7 ± 5.9 kg/m3	1040.1 ± 5.9 kg/m3	viscosity (318.15 K): 115 ± 8 mPa·s; viscosity (323.15 K): 92 ± 6 mPa·s; viscosity (328.15 K): 76 ± 5 mPa·s; viscosity (333.15 K): 63 ± 4 mPa·s; mass density (338.15 K): 1036.6 ± 5.8 kg/m3; mass density (343.15 K): 1033 ± 5.8 kg/m3; mass density (348.15 K): 1029.5 ± 5.7 kg/m3; mass density (353.15 K): 1026 ± 5.7 kg/m3; Glass transition temperature: -82 ± 2 °C
